Source: ChEMBL document CHEMBL1909046, “DrugMatrix in vitro pharmacology data”

Key:
Substance-P receptor = Substance-P receptor (Homo sapiens, UniProt P25103); assay type: cell membranes, CHO, Membrane; conditions: cho; also: in other assays of this panel Not Active means under 50% inhibition at 10 µM
[1] = DRUGMATRIX: Atrial Natriuretic Factor (ANF) radioligand binding (ligand: [125I] ANF (rat)); assay type: cell membranes, Cavia porcellus, Dunkin-Hartley, Adrenal gland, Membrane; conditions: Not Active = under 50% inhibition at 10 µM
[2] = target: T1, Muscarinic acetylcholine receptor M2 (Homo sapiens, UniProt P08172); assay type: cell membranes, CHO-K1, Membrane; also: in other assays of this panel Not Active means under 50% inhibition at 10 µM
T1 sequence (P08172 whole entry): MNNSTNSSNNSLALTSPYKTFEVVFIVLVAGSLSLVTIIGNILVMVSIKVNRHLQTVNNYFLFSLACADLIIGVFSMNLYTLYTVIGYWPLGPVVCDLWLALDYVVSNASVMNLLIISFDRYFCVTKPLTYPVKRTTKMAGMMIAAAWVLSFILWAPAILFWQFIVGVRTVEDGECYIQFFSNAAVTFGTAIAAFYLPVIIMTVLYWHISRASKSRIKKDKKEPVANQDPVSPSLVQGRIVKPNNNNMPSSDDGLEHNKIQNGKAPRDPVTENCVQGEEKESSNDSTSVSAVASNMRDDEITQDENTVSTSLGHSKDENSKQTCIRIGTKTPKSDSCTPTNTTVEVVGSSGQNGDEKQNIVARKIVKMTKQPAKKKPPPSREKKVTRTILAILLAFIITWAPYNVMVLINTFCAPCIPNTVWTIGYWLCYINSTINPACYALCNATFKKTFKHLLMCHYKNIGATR

[3] = DRUGMATRIX: Sodium/nucleoside co-transporter radioligand binding (ligand: nitrobenzylthioinosine); assay type: cell membranes, Cavia porcellus, Dunkin-Hartley, Cerebral cortex, Membrane; conditions: Not Active = under 50% inhibition at 10 µM
[4] = target: T2, Alpha-2A adrenergic receptor (Homo sapiens, UniProt P08913); assay type: cell membranes, Sf9, Membrane; also: in other assays of this panel Not Active means under 50% inhibition at 10 µM
T2 sequence (P08913 whole entry): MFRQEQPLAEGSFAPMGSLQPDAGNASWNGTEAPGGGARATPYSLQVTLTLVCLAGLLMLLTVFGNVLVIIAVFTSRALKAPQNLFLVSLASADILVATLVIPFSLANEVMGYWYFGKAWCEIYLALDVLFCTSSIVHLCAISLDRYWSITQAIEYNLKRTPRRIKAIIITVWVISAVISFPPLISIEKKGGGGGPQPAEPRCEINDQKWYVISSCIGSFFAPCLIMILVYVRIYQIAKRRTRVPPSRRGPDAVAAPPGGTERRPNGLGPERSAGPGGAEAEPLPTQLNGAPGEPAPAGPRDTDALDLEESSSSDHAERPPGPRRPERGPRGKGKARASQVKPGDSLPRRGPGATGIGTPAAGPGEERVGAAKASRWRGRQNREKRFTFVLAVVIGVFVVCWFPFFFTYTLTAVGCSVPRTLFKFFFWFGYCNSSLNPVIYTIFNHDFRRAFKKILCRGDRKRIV

Melanocortin receptor 5 = Melanocortin receptor 5 (Homo sapiens, UniProt P33032); assay type: cell membranes, HEK293, Membrane; conditions: hek293; also: in other assays of this panel Not Active means under 50% inhibition at 10 µM
Melanocortin receptor 5, sequence (P33032 whole entry): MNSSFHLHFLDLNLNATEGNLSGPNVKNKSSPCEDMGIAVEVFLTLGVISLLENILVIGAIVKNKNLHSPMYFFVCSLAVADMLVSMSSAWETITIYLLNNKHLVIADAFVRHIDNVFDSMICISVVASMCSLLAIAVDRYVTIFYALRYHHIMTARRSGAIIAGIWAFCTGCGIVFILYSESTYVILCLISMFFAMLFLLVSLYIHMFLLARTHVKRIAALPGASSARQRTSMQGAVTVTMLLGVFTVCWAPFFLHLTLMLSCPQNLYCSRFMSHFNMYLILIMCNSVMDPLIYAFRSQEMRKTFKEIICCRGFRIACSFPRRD

[5] = target: Aldo-keto reductase family 1 member B1 (Rattus norvegicus, UniProt P07943); assay type: tissue-based, Lens of camera-type eye
[6] = DRUGMATRIX: Leukotriene, BLT (LTB4) radioligand binding (ligand: [3H]LTB4); assay type: cell membranes, Membrane; conditions: u-937; Not Active = under 50% inhibition at 10 µM
Adenosine receptor A3 = target: T3, Adenosine receptor A3 (Homo sapiens, UniProt P0DMS8); assay type: cell membranes, CHO-K1, Membrane
T3 sequence (P0DMS8 whole entry): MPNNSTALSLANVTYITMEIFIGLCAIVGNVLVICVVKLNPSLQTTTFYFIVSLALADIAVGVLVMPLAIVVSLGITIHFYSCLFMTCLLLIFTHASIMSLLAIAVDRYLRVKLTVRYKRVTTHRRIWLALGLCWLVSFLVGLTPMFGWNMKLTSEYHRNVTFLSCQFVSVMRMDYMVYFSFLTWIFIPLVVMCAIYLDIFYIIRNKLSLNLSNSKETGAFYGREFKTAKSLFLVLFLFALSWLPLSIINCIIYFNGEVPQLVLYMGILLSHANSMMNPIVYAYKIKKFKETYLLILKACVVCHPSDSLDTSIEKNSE

[7] = target: T4, Alpha-1D adrenergic receptor (Homo sapiens, UniProt P25100); assay type: cell membranes, HEK293, Membrane; also: in other assays of this panel Not Active means under 50% inhibition at 10 µM
T4 sequence (P25100 whole entry): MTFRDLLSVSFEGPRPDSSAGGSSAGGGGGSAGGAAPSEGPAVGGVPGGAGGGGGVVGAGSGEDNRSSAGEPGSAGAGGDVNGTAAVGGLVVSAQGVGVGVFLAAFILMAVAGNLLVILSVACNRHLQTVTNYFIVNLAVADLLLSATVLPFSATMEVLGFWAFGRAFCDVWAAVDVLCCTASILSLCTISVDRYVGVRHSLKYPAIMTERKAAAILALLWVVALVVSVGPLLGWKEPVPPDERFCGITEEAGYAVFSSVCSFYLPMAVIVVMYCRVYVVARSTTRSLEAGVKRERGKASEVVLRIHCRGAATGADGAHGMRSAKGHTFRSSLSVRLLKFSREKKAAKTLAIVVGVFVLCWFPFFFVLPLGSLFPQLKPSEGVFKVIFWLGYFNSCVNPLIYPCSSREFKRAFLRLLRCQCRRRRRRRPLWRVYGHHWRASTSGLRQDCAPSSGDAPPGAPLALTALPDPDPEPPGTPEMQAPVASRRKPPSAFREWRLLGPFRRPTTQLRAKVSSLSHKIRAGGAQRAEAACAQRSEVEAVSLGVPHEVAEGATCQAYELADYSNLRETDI

[8] = DRUGMATRIX: Glutamate, NMDA, Agonism radioligand binding (ligand: [3H] CGP-39653); assay type: cell membranes, Rattus norvegicus, Wistar, Cerebral cortex, Membrane; conditions: Not Active = under 50% inhibition at 10 µM
Adenosine receptor A2a = Adenosine receptor A2a (Homo sapiens, UniProt P29274); experiment: DRUGMATRIX: Adenosine A2A radioligand binding (ligand: […]); assay type: cell membranes, HEK293, Membrane; conditions: hek293; Not Active = under 50% inhibition at 10 µM
Adenosine receptor A2a, sequence (P29274 whole entry): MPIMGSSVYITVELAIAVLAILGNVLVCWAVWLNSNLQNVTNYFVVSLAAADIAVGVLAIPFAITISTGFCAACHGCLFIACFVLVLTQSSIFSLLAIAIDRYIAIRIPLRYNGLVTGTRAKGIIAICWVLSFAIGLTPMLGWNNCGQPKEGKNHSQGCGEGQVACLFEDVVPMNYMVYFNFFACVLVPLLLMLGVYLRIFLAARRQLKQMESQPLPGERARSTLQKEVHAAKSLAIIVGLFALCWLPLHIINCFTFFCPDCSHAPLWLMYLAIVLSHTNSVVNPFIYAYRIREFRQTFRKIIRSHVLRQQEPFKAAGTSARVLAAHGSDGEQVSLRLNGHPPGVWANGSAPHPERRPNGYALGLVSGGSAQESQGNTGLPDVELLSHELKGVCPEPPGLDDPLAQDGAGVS

Substance-P receptor, sequence (P25103 whole entry): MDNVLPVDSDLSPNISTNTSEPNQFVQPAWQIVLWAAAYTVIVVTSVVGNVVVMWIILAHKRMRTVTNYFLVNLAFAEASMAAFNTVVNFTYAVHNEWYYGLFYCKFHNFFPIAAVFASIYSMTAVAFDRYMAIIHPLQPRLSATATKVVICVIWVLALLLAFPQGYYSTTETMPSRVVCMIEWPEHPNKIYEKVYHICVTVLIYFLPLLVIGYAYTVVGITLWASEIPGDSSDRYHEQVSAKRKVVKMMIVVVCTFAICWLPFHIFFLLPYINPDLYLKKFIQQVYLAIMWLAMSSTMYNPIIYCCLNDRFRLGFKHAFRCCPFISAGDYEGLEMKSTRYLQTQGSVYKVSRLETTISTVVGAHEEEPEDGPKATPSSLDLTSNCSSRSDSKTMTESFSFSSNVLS

| SMILES | IC50 (Substance-P receptor) | IC50 [1] | Ki [1] | IC50 ([2]; cho-k1) | IC50 [3] | Ki [3] | IC50 ([4]; sf9) | IC50 (Melanocortin receptor 5) | IC50 [5] | IC50 [6] | Ki [6] | IC50 (Adenosine receptor A3; cho-k1) | IC50 ([7]; hek293) | IC50 [8] | Ki [8] | IC50 (Adenosine receptor A2a) | also measured |
| --- | --- | --- | --- | --- | --- | --- | --- | --- | --- | --- | --- | --- | --- | --- | --- | --- | --- |
| COc1ccc2cc(CC(=O)O)ccc2c1 | Not Active | Not Active | Not Active | Not Active | Not Active | Not Active | Not Active | Not Active | Not Active | Not Active | Not Active | Not Active | Not Active | Not Active | Not Active | Not Active |  |
| CC(C)NC[C@H](O)COc1cccc2[nH]ccc12 | Not Active | Not Active | Not Active | Not Active | Not Active | Not Active | Not Active | Not Active | Not Active | Not Active | Not Active | Not Active | Not Active | Not Active | Not Active | Not Active |  |
| c1ccc2c(c1)cc1ccc3cccc4ccc2c1c34 | Not Active | Not Active | Not Active | Not Active | Not Active | Not Active | Not Active | Not Active | Not Active | Not Active | Not Active | Not Active | Not Active | Not Active | Not Active | Not Active |  |
| CC=CC(=O)N(CC)c1ccccc1C | Not Active | Not Active | Not Active | Not Active | Not Active | Not Active | Not Active | Not Active | Not Active | Not Active | Not Active | Not Active | Not Active | Not Active | Not Active | Not Active |  |
| C=C1C(=O)O[C@@H]2C3O[C@]3(C)CC/C=C(\C)CC[C@@H]12 (stereo not given in full) | Not Active | Not Active | Not Active | Not Active | Not Active | Not Active | Not Active | Not Active | Not Active | Not Active | Not Active | Not Active | Not Active | Not Active | Not Active | Not Active |  |
| CC(/C=C1\SC(=S)N(CC(=O)O)C1=O)=C\c1ccccc1 | Not Active | Not Active | Not Active | Not Active | Not Active | Not Active | Not Active | Not Active |  | Not Active | Not Active | Not Active | Not Active | Not Active | Not Active | Not Active |  |
| CCCCCCCCCc1ccc(O)cc1 [4-NONYLPHENOL] | Not Active | Not Active | Not Active | Not Active | Not Active | Not Active |  | Not Active | Not Active | Not Active | Not Active |  | Not Active | Not Active | Not Active | Not Active | IC50 ([4]; read-out: IC50): 6780 nM; Ki ([4]; read-out: Ki): 2540 nM; IC50 (Adenosine receptor A3; read-out: IC50): 1920 nM; Ki (Adenosine receptor A3; read-out: Ki): 1080 nM |
| CC[N+](CC)(CC)CCOc1cccc(OCC[N+](CC)(CC)CC)c1OCC[N+](CC)(CC)CC.[I-].[I-].[I-] [GALLAMINE TRIETHIODIDE] | Not Active | Not Active | Not Active |  | Not Active | Not Active | Not Active | Not Active | Not Active | Not Active | Not Active | Not Active | Not Active | Not Active | Not Active | Not Active |  |
| CNCCC=C1c2ccccc2CCc2ccccc21 [NORTRIPTYLINE] | Not Active | Not Active | Not Active |  | Not Active | Not Active |  | Not Active | Not Active | Not Active | Not Active | Not Active |  | Not Active | Not Active | Not Active | IC50 ([2]; read-out: IC50): 347 nM; Ki ([2]; read-out: Ki): 123 nM; IC50 ([7]; read-out: IC50): 273 nM; Ki ([7]; read-out: Ki): 134 nM |
| Fc1ccc([C@@H]2CCNC[C@H]2COc2ccc3c(c2)OCO3)cc1 [PAROXETINE] | Not Active | Not Active | Not Active |  | Not Active | Not Active | Not Active | Not Active | Not Active | Not Active | Not Active | Not Active | Not Active | Not Active | Not Active | Not Active |  |
